Data taken from patent US12612380B2, “Non-lysosomal glucosylceramidase inhibitors and uses thereof” (ALECTOS THERAPEUTICS INC., priority 2019, dated 2026).
pIC50: −log10 of the molar value.

target: T1, GBA2 (Homo sapiens, UniProt Q9HCG7); experiment: Determination of IC50 values for inhibition of GBA2 in cell lysate; type: biochemical; set-up: host or cells: HEK293T (lentiviral transduction, puromycin selection); used as cellular homogenate; conditions: not given
T1 sequence (Q9HCG7 1-927): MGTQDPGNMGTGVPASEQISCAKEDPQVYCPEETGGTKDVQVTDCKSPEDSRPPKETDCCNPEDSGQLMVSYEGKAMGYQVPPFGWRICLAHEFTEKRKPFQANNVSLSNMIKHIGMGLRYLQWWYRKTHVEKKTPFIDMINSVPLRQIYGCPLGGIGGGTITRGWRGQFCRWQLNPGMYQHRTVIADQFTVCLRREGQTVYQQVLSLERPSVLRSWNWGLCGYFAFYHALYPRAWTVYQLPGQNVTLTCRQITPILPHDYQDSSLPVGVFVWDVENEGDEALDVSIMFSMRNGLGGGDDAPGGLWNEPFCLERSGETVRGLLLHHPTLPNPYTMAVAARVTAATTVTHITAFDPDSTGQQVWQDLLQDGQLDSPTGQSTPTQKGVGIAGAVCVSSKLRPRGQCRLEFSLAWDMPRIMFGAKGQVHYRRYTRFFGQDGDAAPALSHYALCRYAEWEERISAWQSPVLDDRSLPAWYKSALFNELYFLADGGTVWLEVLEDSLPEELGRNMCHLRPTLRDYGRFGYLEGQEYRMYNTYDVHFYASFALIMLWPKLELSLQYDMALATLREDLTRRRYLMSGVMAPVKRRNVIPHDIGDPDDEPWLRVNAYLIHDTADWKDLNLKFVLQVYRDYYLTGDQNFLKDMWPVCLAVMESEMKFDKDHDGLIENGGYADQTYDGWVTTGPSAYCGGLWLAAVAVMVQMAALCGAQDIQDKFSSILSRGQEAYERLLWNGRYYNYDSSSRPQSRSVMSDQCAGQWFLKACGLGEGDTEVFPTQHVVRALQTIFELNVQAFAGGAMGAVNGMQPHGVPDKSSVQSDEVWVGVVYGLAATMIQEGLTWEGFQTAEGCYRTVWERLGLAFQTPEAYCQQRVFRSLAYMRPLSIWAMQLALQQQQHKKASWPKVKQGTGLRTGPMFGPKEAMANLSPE
Excerpt: Assay for Determination of IC50 Values for Inhibition of GBA2 in Cell Lysate
Stable GBA2-expressing HEK293T cells were generated as follows. The PCR-amplified human GBA2 (GBA2 nucleotide accession number BC011363) using the following primers: Sense 5′---CGCAAATGGGCGGTAGGCGTG (SEQ ID NO:2)---3′ and antisense 5′---TAGTCAGCCATGGGGCGGAGA (SEQ ID NO:3)---3′) was cloned into pLenti-GIII-CMV by ABM Inc. The correctness of the construct was verified by sequencing. Lentivirus particles containing GBA2 in the pLenti-GIII-CMV plasmid were prepared using a third Generation Virus Packaging Mix (ABM cat #LV053-G074) in HEK293T cells and supplied as a virus particle suspension. The virus suspension was used for infection of HEK293T cells. Cell populations stably expressing human GBA2 were selected using puromycin for several weeks as determined by activity assays and western blot.
Various concentrations of test compounds were prepared in DMSO and then diluted into buffer consisting of 100 mM citric acid, 200 mM disodium phosphate with 1% v/v C10E6, pH 5.5. Cellular homogenates (0.25 mg/mL) of the stable HEK293T-overexpressing GBA2 cell line were preincubated for 10 min on ice with an inhibitor of GCase (20 μM (6R,7R,8S)-8-ethyl-4-azaspiro[2.5]octane-6,7-diol). The reaction solution consisted of 20 μL of 750 μM 4-methylumbelliferone-β-D glucopyranoside in 5% DMSO in the same buffer, 20 μL of GBA2-cellular homogenate pre-treated with (6R,7R,8S)-8-ethyl-4-azaspiro[2.5]octane-6,7-diol and 20 μL of various concentrations of test compound in 10% DMSO in the same buffer. The final concentrations in the reaction were 0.083 mg/mL GBA2-cellular homogenate, 250 μM 4-methylumbelliferone-β-D glucopyranoside, and various concentrations of inhibitor. The inhibitor and GBA2-cellular homogenate were preincubated together for 5 min at 37° C. The reaction was initiated by addition of substrate and allowed to proceed for 20 min at 37° C. to assess GBA2 activity. Reactions were stopped by the addition of an equal volume (60 μL) of 0.5 M NaOH, 0.3 M glycine, pH 10.5. Fluorescence was measured on a Biotek Synergy H4 plate reader at wavelengths of 365 nm for excitation and 450 nm for emission. Incubations without added enzyme or added inhibitors were used to define no enzyme activity and maximal enzyme activity, respectively. IC50 values were determined by fitting the data to a log[inhibitor concentration] versus response curve using GraphPad Prism. IC50 values were calculated as the concentration of inhibitor required to inhibit GBA2 activity by 50%.

Row | Compound | pIC50
1 | C[C@@H]1[C@@H](O)[C@H](O)[C@@H](O)CN1CCc1cc(F)ccc1F [Example 42, (2R,3R,4R,5S)-1-(2,5-difluorophenethyl)-2-methylpiperidine-3,4,5-triol] | > 7.00
2 | COc1ccc(CCN2C[C@H](O)[C@@H](O)[C@H](O)[C@H]2C)c(F)c1 [Example 44, (2R,3R,4R,5S)-1-(2-fluoro-4-methoxyphenethyl)-2-methylpiperidine-3,4,5-triol] | 6.00 to 7.00
3 | C[C@@H]1[C@@H](O)[C@H](O)[C@@H](O)CN1CCc1cccc(F)c1F [Example 40, (2R,3R,4R,5S)-1-(2,3-difluorophenethyl)-2-methylpiperidine-3,4,5-triol] | 6.00 to 7.00
4 | C[C@@H]1[C@@H](O)[C@H](O)[C@@H](O)CN1CCc1ccc(OCC2CCOC2)cc1 (stereo partly drawn) [Example 65, (2R,3R,4R,5S)-2-methyl-1-(4-((tetrahydrofuran-3-yl)methoxy)phenethyl)piperidine-3,4,5-triol] | > 7.00
5 | C[C@@H]1[C@@H](O)[C@H](O)[C@@H](O)CN1CCc1ccc2c(c1)OC(F)(F)O2 [Example 72, (2R,3R,4R,5S)-1-(2-(2,2-difluorobenzo[d][1,3]dioxol-5-yl)ethyl)-2-methylpiperidine-3,4,5-triol] | > 7.00
6 | O[C@H]1[C@H](O)[C@@H](O)CN(CCc2ccccc2)[C@@H]1CF [Example 148, (2S,3R,4R,5S)-2-(fluoromethyl)-1-phenethylpiperidine-3,4,5-triol] | 6.00 to 7.00

same assay, conditions: cellular homogenate of HEK293T cells overexpressing human GBA2, 250 μM 4-methylumbelliferone-β-D glucopyranoside, pH 5.5, 37° C., GCase inhibitor present; read-out: GBA2 IC50

Row | Compound | pIC50
7 | C[C@@H]1[C@@H](O)[C@H](O)[C@@H](O)CN1C[C@@H]1CCCN(c2nc(C(F)(F)F)cs2)C1 [Example 144, (2R,3R,4R,5S)-2-methyl-1-(((S)-1-(4-(trifluoromethyl)thiazol-2-yl)piperidin-3-yl)methyl)piperidine-3,4,5-triol] | 6.00 to 7.00
8 | C[C@@H]1[C@@H](O)[C@H](O)[C@@H](O)CN1CC1CCN(C(=O)c2ccsc2)CC1 [Example 109, thiophen-3-yl(4-(((2R,3R,4R,5S)-3,4,5-trihydroxy-2-methylpiperidin-1-yl)methyl)piperidin-1-yl)methanone] | 6.00 to 7.00
9 | C[C@@H]1[C@@H](O)[C@H](O)[C@@H](O)CN1CC1CCN(C(=O)C2CCCCC2)CC1 [Example 101, cyclohexyl(4-(((2R,3R,4R,5S)-3,4,5-trihydroxy-2-methylpiperidin-1-yl)methyl)piperidin-1-yl)methanone] | 6.00 to 7.00
10 | C[C@@H]1[C@@H](O)[C@H](O)[C@@H](O)CN1C[C@H]1CCN(c2cc(C(F)(F)F)ccn2)C1 [Example 121, (2R,3R,4R,5S)-2-methyl-1-(((R)-1-(4-(trifluoromethyl)pyridin-2-yl)pyrrolidin-3-yl)methyl)piperidine-3,4,5-triol] | > 7.00
11 | C[C@@H]1[C@@H](O)[C@H](O)[C@@H](O)CN1C[C@H]1CCN(c2cnccc2C(F)(F)F)C1 [Example 124, (2R,3R,4R,5S)-2-methyl-1-(((R)-1-(4-(trifluoromethyl)pyridin-3-yl)pyrrolidin-3-yl)methyl)piperidine-3,4,5-triol] | > 7.00
12 | C[C@@H]1[C@@H](O)[C@H](O)[C@@H](O)CN1CC1CCN(C(=O)CC(C)(C)C)CC1 [Example 96, 3,3-dimethyl-1-(4-(((2R,3R,4R,5S)-3,4,5-trihydroxy-2-methylpiperidin-1-yl)methyl)piperidin-1-yl)butan-1-one] | 6.00 to 7.00
13 | C[C@@H]1[C@@H](O)[C@H](O)[C@@H](O)CN1C[C@H]1CCN(C(=O)c2ccc(C(F)(F)F)cc2)C1 [Example 130, (4-(trifluoromethyl)phenyl)((R)-3-(((2R,3R,4R,5S)-3,4,5-trihydroxy-2-methylpiperidin-1-yl)methyl)pyrrolidin-1-yl)methanone] | > 7.00
14 | CO[C@H]1CC[C@@H](CN2C[C@H](O)[C@@H](O)[C@H](O)[C@H]2C)CC1 [Example 17, (2R,3R,4R,5S)-1-(((1s,4S)-4-methoxycyclohexyl)methyl)-2-methylpiperidine-3,4,5-triol] | 4.60 to 6.00
15 | C[C@@H]1[C@@H](O)[C@H](O)[C@@H](O)CN1C[C@H]1CCN(c2cncc(C(F)(F)F)c2)C1 [Example 125, (2R,3R,4R,5S)-2-methyl-1-(((R)-1-(5-(trifluoromethyl)pyridin-3-yl)pyrrolidin-3-yl)methyl)piperidine-3,4,5-triol] | > 7.00
16 | C[C@@H]1[C@@H](O)[C@H](O)[C@@H](O)CN1CCC1CCN(c2ccccc2)CC1 [Example 89, (2R,3R,4R,5S)-2-methyl-1-(2-(1-phenylpiperidin-4-yl)ethyl)piperidine-3,4,5-triol] | > 7.00

Next, values leading:

Row | pIC50 | Compound
17 | > 7.00 | C[C@@H]1[C@@H](O)[C@H](O)[C@@H](O)CN1C[C@@H]1CCN(c2nc(C(F)(F)F)cs2)C1 [Example 135, (2R,3R,4R,5S)-2-methyl-1-(((S)-1-(4-(trifluoromethyl)thiazol-2-yl)pyrrolidin-3-yl)methyl)piperidine-3,4,5-triol]
18 | > 7.00 | C[C@@H]1[C@@H](O)[C@H](O)[C@@H](O)CN1C[C@H]1CCN(c2ccccc2)C1 [Example 113, (2R,3R,4R,5S)-2-methyl-1-(((R)-1-phenylpyrrolidin-3-yl)methyl)piperidine-3,4,5-triol]
19 | > 7.00 | C[C@@H]1[C@@H](O)[C@H](O)[C@@H](O)CN1CCc1ccc(-c2ccccc2)cc1 [Example 68, (2R,3R,4R,5S)-1-(2-([1,1′-biphenyl]-4-yl)ethyl)-2-methylpiperidine-3,4,5-triol]
20 | > 7.00 | CC(C)C1CCC(CN2C[C@H](O)[C@@H](O)[C@H](O)[C@H]2CF)CC1 (stereo partly drawn) [Example 145, (2S,3R,4R,5S)-2-(fluoromethyl)-1-((4-isopropylcyclohexyl)methyl)piperidine-3,4,5-triol]
21 | > 7.00 | C[C@@H]1[C@@H](O)[C@H](O)[C@@H](O)CN1CC1CCN(C(=O)[C@H]2CC[C@H](C(C)(C)C)CC2)CC1 [Example 103, ((1r,4R)-4-(tert-butyl)cyclohexyl)(4-(((2R,3R,4R,5S)-3,4,5-trihydroxy-2-methylpiperidin-1-yl)methyl)piperidin-1-yl)methanone]
22 | > 7.00 | C[C@@H]1[C@@H](O)[C@H](O)[C@@H](O)CN1C[C@@H]1CCN(c2ncccc2C(F)(F)F)C1 [Example 132, (2R,3R,4R,5S)-2-methyl-1-(((S)-1-(3-(trifluoromethyl)pyridin-2-yl)pyrrolidin-3-yl)methyl)piperidine-3,4,5-triol]
23 | > 7.00 | C[C@@H]1[C@@H](O)[C@H](O)[C@@H](O)CN1CCc1ccc(Oc2ccccc2)cc1 [Example 64, (2R,3R,4R,5S)-2-methyl-1-(4-phenoxyphenethyl)piperidine-3,4,5-triol]
24 | > 7.00 | C[C@@H]1[C@@H](O)[C@H](O)[C@@H](O)CN1CC[C@H]1CC[C@@H](C(F)(F)F)CC1 [Example 31, (2R,3R,4R,5S)-2-methyl-1-(2-((1s,4S)-4-(trifluoromethyl)cyclohexyl)ethyl)piperidine-3,4,5-triol]
